Data: PubChem BioAssay AID1963841 (Molecular Pharmacology Branch, DTP, NCI, 2024)

System: 439559-082-T-J2-PDC spheroid viability
Experiment: Anticancer human tumor 439559-082-T-J2-PDC patient-derived colon adenocarcinoma cell line growth inhibition [POLQ]
Conditions: spheroids with HUVEC and MSC; for IC50: curve of first compound; for viability, T/C: stronger effect = lower value
Method: Multicellular complex tumor spheroid response to Polymerase (POL) inhibitors (novobiocin, ART-558, RP6685) in combination with a variety of drugs and investigational agents in selected tumor cell lines
The POL inhibitors (novobiocin, ART-558, and RP6685) were evaluated both individually and in combination with standard of care and investigational anticancer small molecules within a complex spheroid model of solid tumors. . Complex spheroids include a stromal component modeled by human endothelial cells (HUVEC) and fibroblasts modeled by human mesenchymal stem cells (MSCs). The concentration ranges selected for each drug and investigational agent were based upon clinically achievable concentrations if the clinical Cmax of the agent was known.
Compounds. The drugs and investigational agents: novobiocin (NSC847541), ART-558 (NSC835418), RP-6685 (NSC848927), peposertib (NSC802822), ceralasertib (NSC780249), elimusertib (NSC800525), camonsertib (NSC841442), AZD-1390 (NSC803789), olaparib (NSC753686), talazoparib (NSC767125), rucaparib (NSC756644), sotorasib (NSC818433), MRTX-1133 (NSC836407), SN-38 (NSC673596), topotecan (NSC609699), epotoside (NSC141540), doxorubicin (NSC123127), gemcitabine (NSC613327), 5-fluorouracil (NSC19893), paclitaxel (NSC125973), vemurafenib (NSC761431), MSA-2 (NSC828583), SN-011 (NSC837082), adavosertib (NSC754352), prexasertib (NSC758257), carboplatin (NSC241240) and oxaliplatin (NSC266046), were obtained from the National Cancer Institute (NCI) Developmental Therapeutics Program Chemical Repository (21). The FDA-approved anticancer drug set is available from the Developmental Therapeutics Program at https://dtp.cancer.gov/organization/dscb/obtaining/. […] The stock solutions were prepared in dimethyl sulfoxide (DMSO, Sigma-Aldrich, St. Louis, MO, cat. D2650), except for the platinum compounds which were prepared in saline (Quality Biological, Gaithersburg, MD, cat. 114-055-101), at 800-fold the tested concentration and stored at -70 degrees C prior to their use. All drugs and investigational agents were tested over a range starting from a high concentration at or near the clinical Cmax and decreasing in half-log increments. If the clinical Cmax for an agent had not been determined, the highest concentration tested was 10 microM, except for SN-38, which was tested at a high concentration of 1 microM.
Cell Culture. All cells were maintained in an incubator at 37 degrees C and 5% CO2 with 95% humidity. The PDC lines were cultured according to standard operating procedures established by the NCI PDMR (https://pdmr.cancer.gov). Table 3 of the manuscript, lists the cell lines along with the number of the three cell types plated to form the mct-spheroids and media for tumor cell growth. After thawing, all PDC lines, except 997537-175-T-J1-PDC and 415267-285-R-J2-PDC, were cultured in Matrigel-coated flasks prepared with a working solution of 1X Ham's F-12 nutrient mix, without supplementation (Thermo Fisher Scientific, cat. 11765054), 100 U/mL penicillin-streptomycin (Thermo Fisher Scientific, cat. 15140122), and 2.5% Matrigel (Corning Inc., Corning, NY, cat. 354248) for the first three passages. The two PDC lines 997537-175-T-J1-PDC and 415267-285-R-J2-PDC were cultured on uncoated flasks. The 857933-349-R-J2-PDC line was cultured in 6C/Colon 1B media containing advanced DMEM/F-12 (Thermo Fisher Scientific, cat. 12634028), 10 mM HEPES (Thermo Fisher Scientific, cat. 15630080), 1X GlutaMAX supplement (Thermo Fisher Scientific, cat. 35050061), 0.1 mg/mL primocin (InvivoGen, San Diego, CA, cat. ant-pm-2), 10% defined fetal bovine serum, heat inactivated (HyClone Laboratories Inc., Logan, UT, cat. SH30070.03HI), 50% L-WRN conditioned media (ATCC, cat. CRL-3276), 1.25 mM N-Acetyl-L-cysteine (Sigma-Aldrich, cat. A9165), 10 mM nicotinamide (Sigma-Aldrich, cat. N0636), 1X B-27 supplement (Thermo Fisher Scientific, cat. 17504044), 1X N-2 supplement (Thermo Fisher Scientific, cat. […]

[1] = second compound 0.0316 µM, first compound 0.0316 µM
[2] = second compound 0.0316 µM, first compound 0.1 µM
[3] = second compound 0.0316 µM, first compound 0.316 µM
[4] = second compound 0.0316 µM, first compound 1 µM
[5] = second compound 0.0316 µM, first compound 3.16 µM
[6] = second compound 0.0316 µM, first compound 10 µM
[7] = second compound 0.1 µM, first compound 0.0316 µM
[8] = second compound 0.1 µM, first compound 0.1 µM
[9] = second compound 0.1 µM, first compound 0.316 µM
[10] = second compound 0.1 µM, first compound 1 µM
[11] = second compound 0.1 µM, first compound 3.16 µM
[12] = second compound 0.1 µM, first compound 10 µM
[13] = second compound 0.316 µM, first compound 0.0316 µM
[14] = second compound 0.316 µM, first compound 0.1 µM
[15] = second compound 0.316 µM, first compound 0.316 µM
[16] = second compound 0.316 µM, first compound 1 µM
[17] = second compound 0.316 µM, first compound 3.16 µM
[18] = second compound 0.316 µM, first compound 10 µM
[19] = second compound 1 µM, first compound 0.0316 µM
[20] = second compound 1 µM, first compound 0.1 µM
[21] = second compound 1 µM, first compound 0.316 µM
[22] = second compound 1 µM, first compound 1 µM
[23] = second compound 1 µM, first compound 3.16 µM
[24] = second compound 1 µM, first compound 10 µM
[25] = second compound 3.16 µM, first compound 0.0316 µM
[26] = second compound 3.16 µM, first compound 0.1 µM
[27] = second compound 3.16 µM, first compound 0.316 µM
[28] = second compound 3.16 µM, first compound 1 µM
[29] = second compound 3.16 µM, first compound 3.16 µM
[30] = second compound 3.16 µM, first compound 10 µM
[31] = second compound 10 µM, first compound 0.0316 µM
[32] = second compound 10 µM, first compound 0.1 µM
[33] = second compound 10 µM, first compound 0.316 µM
[34] = second compound 10 µM, first compound 1 µM
[35] = second compound 10 µM, first compound 3.16 µM
[36] = second compound 10 µM, first compound 10 µM
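Also: spheroids exposed to compounds for seven days before readout.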
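For viability, T/C in this document: 100% = DMSO vehicle control viability.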

CCc1cc2c(N3CCc4c(cc(Cn5ccnc5)cc4-c4cn(C)nc4C(F)(F)F)C3=O)cc(C)nc2c(OC)n1 + Nc1ccc(C#CCN(C(=O)Cc2ncc(C(F)(F)F)cc2C(F)(F)F)c2ccc(F)cc2)nn1
IC50 (second compound 0.0316 µM): > 10 µM | IC50 (second compound 0.1 µM): > 10 µM | IC50 (second compound 0.316 µM): > 10 µM | IC50 (second compound 1 µM): > 10 µM | IC50 (second compound 3.16 µM): > 10 µM | IC50 (second compound 10 µM): > 10 µM | viability, T/C [1]: 97% | viability, T/C [2]: 96.8% | viability, T/C [3]: 95.3% | viability, T/C [4]: 93.2% | viability, T/C [5]: 98.2% | viability, T/C [6]: 92.7% | viability, T/C [7]: 108% | viability, T/C [8]: 87.9% | viability, T/C [9]: 89.7% | viability, T/C [10]: 95.9% | viability, T/C [11]: 91.9% | viability, T/C [12]: 96.2% | viability, T/C [13]: 102% | viability, T/C [14]: 92.2% | viability, T/C [15]: 95.7% | viability, T/C [16]: 96% | viability, T/C [17]: 96.1% | viability, T/C [18]: 86.5% | viability, T/C [19]: 94.5% | viability, T/C [20]: 95% | viability, T/C [21]: 89.3% | viability, T/C [22]: 85.3% | viability, T/C [23]: 104% | viability, T/C [24]: 88.6% | viability, T/C [25]: 101% | viability, T/C [26]: 93.3% | viability, T/C [27]: 85.9% | viability, T/C [28]: 86.3% | viability, T/C [29]: 92.6% | viability, T/C [30]: 86.3% | viability, T/C [31]: 98.5% | viability, T/C [32]: 95.3% | viability, T/C [33]: 80.4% | viability, T/C [34]: 96% | viability, T/C [35]: 89.1% | viability, T/C [36]: 86.8%

Nc1ccn(C2OC(CO)C(O)C2(F)F)c(=O)n1 (stereo unspecified) + Cc1cccc(N(C)C(=O)C2C(O)CCN2c2nc(C)cc(C(F)(F)F)c2C#N)c1
IC50 (second compound 0.0316 µM): 0.923 µM | IC50 (second compound 0.1 µM): 0.952 µM | IC50 (second compound 0.316 µM): 0.829 µM | IC50 (second compound 1 µM): 0.676 µM | IC50 (second compound 3.16 µM): 0.802 µM | IC50 (second compound 10 µM): 0.829 µM | viability, T/C [1]: 77.8% | viability, T/C [2]: 71.7% | viability, T/C [3]: 60.6% | viability, T/C [4]: 49.9% | viability, T/C [5]: 37.5% | viability, T/C [6]: 30.6% | viability, T/C [7]: 85.4% | viability, T/C [8]: 76.9% | viability, T/C [9]: 63.8% | viability, T/C [10]: 48.5% | viability, T/C [11]: 39.8% | viability, T/C [12]: 32.1% | viability, T/C [13]: 82.5% | viability, T/C [14]: 75.8% | viability, T/C [15]: 63.3% | viability, T/C [16]: 47.5% | viability, T/C [17]: 35.4% | viability, T/C [18]: 29.6% | viability, T/C [19]: 83.2% | viability, T/C [20]: 76.1% | viability, T/C [21]: 61.3% | viability, T/C [22]: 43.1% | viability, T/C [23]: 37.7% | viability, T/C [24]: 30.9% | viability, T/C [25]: 79.8% | viability, T/C [26]: 69.3% | viability, T/C [27]: 59.4% | viability, T/C [28]: 47.1% | viability, T/C [29]: 38.3% | viability, T/C [30]: 31.4% | viability, T/C [31]: 80.3% | viability, T/C [32]: 70.6% | viability, T/C [33]: 57.1% | viability, T/C [34]: 49.5% | viability, T/C [35]: 40% | viability, T/C [36]: 35%

COc1ccc([C@@H](O)c2cc(-c3ncnc4cc(N5CCOCC5)ccc34)c(F)cc2Cl)nn1 + Cc1cccc(N(C)C(=O)C2C(O)CCN2c2nc(C)cc(C(F)(F)F)c2C#N)c1
IC50 (second compound 0.0316 µM): > 10 µM | IC50 (second compound 0.1 µM): > 10 µM | IC50 (second compound 0.316 µM): > 10 µM | IC50 (second compound 1 µM): > 10 µM | IC50 (second compound 3.16 µM): > 10 µM | IC50 (second compound 10 µM): > 10 µM | viability, T/C [1]: 95.2% | viability, T/C [2]: 95.5% | viability, T/C [3]: 95.9% | viability, T/C [4]: 94.9% | viability, T/C [5]: 93.4% | viability, T/C [6]: 81.5% | viability, T/C [7]: 101% | viability, T/C [8]: 99.3% | viability, T/C [9]: 94.7% | viability, T/C [10]: 92.9% | viability, T/C [11]: 92% | viability, T/C [12]: 80.1% | viability, T/C [13]: 105% | viability, T/C [14]: 111% | viability, T/C [15]: 92.1% | viability, T/C [16]: 99.3% | viability, T/C [17]: 87.4% | viability, T/C [18]: 80.9% | viability, T/C [19]: 108% | viability, T/C [20]: 101% | viability, T/C [21]: 91.6% | viability, T/C [22]: 93.4% | viability, T/C [23]: 85.5% | viability, T/C [24]: 83% | viability, T/C [25]: 95.1% | viability, T/C [26]: 92.3% | viability, T/C [27]: 97.4% | viability, T/C [28]: 95.6% | viability, T/C [29]: 78.1% | viability, T/C [30]: 77.1% | viability, T/C [31]: 94.8% | viability, T/C [32]: 94.7% | viability, T/C [33]: 93% | viability, T/C [34]: 83.5% | viability, T/C [35]: 83.6% | viability, T/C [36]: 78.3%
